From patent publication US20120178763A1, “Method of Treating Anxious Major Depressive Disorder” (priority 2008, published 2012)
“Also recorded” adds a separate entry of the source.

Columns and labels:
rats = test: Punished responding procedure (modified Geller-Seifter conflict test); details: for Rate of responding, Punished responding / Rate of responding, Unpunished responding: 60 minute pretreatment
Text: In the conflict test, hungry animals were trained to lever-press for food delivery in a standard operant chamber under 2 conditions. In the first condition, referred to as the unsuppressed component, food was delivered on average after 17 lever-presses were made (also called a VR17 schedule of reinforcement). In the second condition, referred to as the suppressed component and signaled by flashing lights inside the operant chamber, food was also delivered following an average of 17 lever-presses, but electric shock was additionally delivered to the floor of the cage under a separate VR17 schedule. Daily sessions consisted of 5 alternating presentations of each component type: suppressed (3 minutes in duration) and unsuppressed (2 minutes in duration).
Compound A was dissolved in distilled deionized water/lactic acid and was administered by mouth in a volume of 1 mL/kg body weight. […] Compound A was administered on Tuesday and Friday and vehicle on Thursday. Monday and Wednesday were washout/baseline days.
Standard 2-lever operant chambers were used (Med Associates). The chambers were fitted with 2 retractable response levers and a stimulus lamp over each of the 2 levers. A pellet dispenser delivered 45 mg food pellets, (Bio Serv) to a cup located inside of the chamber below and between the 2 response levers. A lamp at the top and back of the chamber served as houselights. The grid floors of the operant chambers were interfaced to shock generators and scramblers (Med Associates). All events in the chambers were controlled and monitored by a microprocessor.
There were 2 components in the procedure: 1) an unsuppressed responding component (unpunished) with 2 minutes in duration; and 2) a suppressed responding component (punished) with 3 minutes in duration.
In the unpunished component, the houselights and both stimulus lamps over the response levers were turned on, the lever on the left-hand side of the chamber extended, and a food pellet was delivered following an average of 17 responses on the lever in the chamber (range 3 to 40 responses)—a variable-ratio 17 schedule (VR17).
In the punished component (which followed the unpunished component), the right-hand lever was extended into the chamber; the stimulus lamps and houselights were turned on and off at 1 second intervals, in succession, which served as a cue for this component; and food was available under a VR17 schedule, but was accompanied by an electrical current (0.5 second duration) that was delivered to the grid floor of the chamber under an independent VR17 schedule. The level of the current was adjusted for each individual subject until responding was reduced in the punished component to a level that was about 5% to 10% that of the unpunished component, and ranged from 0.2 mA to 0.75 mA. Unpunished and punished components were separated by 10 second time-out periods in which both response levers were retracted and all stimulus lamps turned off 2 minute unpunished and 3 minute punished components alternated until 5 of each were completed. Daily sessions always began with the unpunished responding component. […] Several doses were tested on a given test day in different subjects. Each dose, then, was tested in different sub-set of rats.
The dependent variables recorded were the rate of responding in unpunished and punished components (total responses/total time under the component) and the number of shocks delivered.

Male Sprague Dawley rats = test: Learned helplessness procedure; type: in vivo, rat; details: for Mean Center Crossings ± SEM: gauge of motor activity; for Mean Escape Failures ± (SEM): of 50 trials
Protocol: Male Sprague Dawley rats were exposed to inescapable electrical stimulation for 2 successive, daily 1 hour periods (conditioning), and then subsequently trained to avoid or escape the electrical stimulation by running to the opposite side of the test cage. […] In the training phase, when the electrical stimulation was escapable, the number of escape failures was recorded. Standard shuttle cages (20 L×16 W×21 centimeters H) fitted with a grid floor were used. The chambers could be partitioned with a closed partition or with an archway that allowed the animals to pass between the 2 sides of the cage. A computer controlled and monitored all events in the chamber.
The procedure utilized involved an induction phase and an avoidance training phase. In the induction phase, rats were enclosed in one side of the shuttle cage and electrical stimulation (2 mA, […]) was delivered to the floor of the cage every 2, 5 or 10 seconds (randomly selected for each trial) until 90 electrical stimulations were delivered. Subjects had no opportunity to escape or to avoid the electrical stimulation. Induction was conducted for 2 consecutive days. In the avoidance training phase, a partition with an arch through which the rats could pass was inserted into the center of the shuttle cages. The method employed a standard shuttle avoidance in which a compound, conditioned stimulus (a 5 second presentation of a tone and turning on of a lamp on the side of the rat containing cage) served to indicate impending presentation of electrical stimulation to the floor of the cage. The electrical stimulation was presented for a 5 second period 5 seconds after initiation of the conditioned stimulus. […] A 30 second inter-trial interval was employed. 40 minute avoidance training sessions, consisting of 50 trials were conducted on 2 consecutive days, beginning 48 hours after the final induction session.
Dosages of all compounds are reported as the free base. […] Drug was administered immediately following conditioning and training sessions and approximately 7-8 hrs after the first injection, as well as on the day in the middle of the study when no conditioning or training was conducted. In study 2, imipramine was administered 30 minutes prior to avoidance training whereas in all other circumstances, drug was administered following training.
The primary dependent variable was escape failures during avoidance training. […] T-Tests were used to compare the performance of the vehicle-administered group to drug treated groups. The no-induction group was used to gauge whether learned helplessness was established, by comparison to the vehicle treated group.

[1] = Efficacious mean plasma exposure in rodent tests of anxiolysis and antidepressant activity; type: in vivo; details: rodents; separate tests of anxiolysis and antidepressant activity

In the case of `CCN(CC)C(=O)c1ccc([C@H](c2cccc(N)c2)N2CCN(Cc3ccc(F)cc3)CC2)cc1` [Example 2, 4-{(R)-(3-aminophenyl)[4-(4-fluorobenzyl)piperazin-1-yl]methyl}-N,N-diethylbenzamide], the “Percent of control, Punished responding” value (rats; 0.21 μmol/kg by mouth) was 107 ± 19.3% of control, the “Percent of control, Unpunished responding” value (rats; 0.21 μmol/kg by mouth) was 103 ± 1.63% of control and the “effect on punished responding” value (rats; 0.21 μmol/kg by mouth) was “not effective”. For the same compound, the “Rate of responding, Punished responding” value (rats; 0.21 μmol/kg by mouth) was 0.11 ± 0.02, the “Rate of responding, Unpunished responding” value (from here on “Rate … Unpunished responding”) (rats; 0.21 μmol/kg by mouth) was 2.06 ± 0.11 and the “Percent of control, Punished responding” value (rats; 0.63 μmol/kg by mouth) was 273 ± 39.2% of control. The “Percent of control, Unpunished responding” value (rats; 0.63 μmol/kg by mouth) was 92.1 ± 5.12% of control, the “Rate of responding, Punished responding” value (rats; 0.63 μmol/kg by mouth) was 0.24 ± 0.03 and the “Rate … Unpunished responding” value (rats; 0.63 μmol/kg by mouth) was 2.02 ± 0.14. For the same compound, the “Percent of control, Punished responding” value (rats; 2.1 μmol/kg by mouth) was 298 ± 132% of control, the “Percent of control, Unpunished responding” value (rats; 2.1 μmol/kg by mouth) was 106 ± 5.60% of control and the “Rate of responding, Punished responding” value (rats; 2.1 μmol/kg by mouth) was 0.18 ± 0.04. The “Rate … Unpunished responding” value (rats; 2.1 μmol/kg by mouth) was 1.95 ± 0.15, the “increase in punished responding (maximal efficacy)” value (rats; 2.11 μmol/kg by mouth) was “about 300%” and the “Percent of control, Punished responding” value (rats; 6.3 μmol/kg by mouth) was 207 ± 67.2% of control. For the same compound, the “Percent of control, Unpunished responding” value (rats; 6.3 μmol/kg by mouth) was 106 ± 2.94% of control, the “Rate of responding, Punished responding” value (rats; 6.3 μmol/kg by mouth) was 0.17 ± 0.03 and the “Rate … Unpunished responding” value (rats; 6.3 μmol/kg by mouth) was 1.92 ± 0.13. For the same compound, the “Percent of control, Punished responding” value (rats; 21.1 μmol/kg by mouth) was 272 ± 100% of control, the “Percent of control, Unpunished responding” value (rats; 21.1 μmol/kg by mouth) was 95.5 ± 4.08% of control and the “Rate of responding, Punished responding” value (rats; 21.1 μmol/kg by mouth) was 0.20 ± 0.04. The “Rate … Unpunished responding” value (rats; 21.1 μmol/kg by mouth) was 1.69 ± 0.12, the “effect on rate of punished responding” value (rats; 0.63, 2.11, 6.3, and 21.1 μmol/kg compared to vehicle controls) was “increased the rate of punished responding” and the “effect on unpunished responding” value (rats; at the doses tested (0.21 to 21 μmol/kg)) was “did not significantly decrease unpunished responding”. For the same compound, the “acute anxiolytic activity” value (rats; modified Geller-Seifter conflict model) was “has acute anxiolytic activity”, the “sedative/hyperactive properties” value (rats; observations of test subjects in their home cage) was “does not possess sedative/hyperactive properties” and the “Mean Center Crossings ± SEM” value (Male Sprague Dawley rats; 0.1 mg/kg by mouth twice a day) was 26.6 (0.85). For the same compound, the “Mean Escape Failures ± (SEM)” value (Male Sprague Dawley rats; 0.1 mg/kg by mouth twice a day) was 6.1 (3.4), the “Mean Center Crossings ± SEM” value (Male Sprague Dawley rats; 1 mg/kg by mouth twice a day) was 30.9 (2.9) and the “Mean Escape Failures ± (SEM)” value (Male Sprague Dawley rats; 1 mg/kg by mouth twice a day) was 3.1 (1.7). For the same compound, the “Mean Center Crossings ± SEM” value (Male Sprague Dawley rats; 10 mg/kg by mouth twice a day) was 26.9 (0.7), the “Mean Escape Failures ± (SEM)” value (Male Sprague Dawley rats; 10 mg/kg by mouth twice a day) was 4.9 (2) and the “effect on escape failures” value (Male Sprague Dawley rats; 0.1, 1 and 10 mg/kg by mouth twice a day, only the 2 higher doses significant, listed as Compound A) was “tended to decrease escape failures; also recorded: produced a decrease in escape failures”.
In the case of `CCN(CC)C(=O)c1ccc([C@H](c2cccc(N)c2)N2CCN(Cc3ccc(F)cc3)CC2)cc1.CCN(CC)C(=O)c1ccc([C@H](c2cccc(N)c2)N2CCN(Cc3ccc(F)cc3)CC2)cc1.O=C(O)/C=C/C(=O)O.O=C(O)/C=C/C(=O)O.O=C(O)/C=C/C(=O)O` [Example 3, 4-{(R)-(3-aminophenyl)[4-(4-fluorobenzyl)piperazin-1-yl]methyl}-N,N-diethylbenzamide sesquifumarate], the “mean plasma exposures shown to be efficacious” value [1] was ≥ 2 ng/mL.
In the case of `CN(C)CCCN1c2ccccc2CCc2ccccc21` [Imipramine, imipramine, reference compound], the “Mean Escape Failures ± (SEM)” value (Male Sprague Dawley rats; 20 mg/kg by mouth twice a day) was 2.3 (1).
In the case of `CN1C(=O)CN=C(c2ccccc2)c2cc(Cl)ccc21` [diazepam, reference compound], the “level of efficacy in the conflict model (punished responding)” value (rats; 3.5 μmol/kg by mouth, data not shown) was ~250%.
